Experimental data taken from patent publication US6805816B1, “Method of producing π-conjugated polymers” (Bayer Aktiengesellschaft, priority 1999, dated 2004).
Values after ≈ are worked out from the molar mass of the structure shown.

Legend:
[1] = Stability: discoloration in air; settings: Monomer alone; in air after only a few hours
[2] = physchem
Description: The cyclodextrin employed was in each case 2,6-dimethyl-β-cyclodextrin.

increase of water solubility [2]	solubility ([2]; 20 °C, water)	SMILES	Stability [1]
–	–	c1cc[nH]c1 [Pyrrole, pyrrole]	Pyrrole: discoloration
more than 30 fold	2100 µg/mL (≈ 14.8 mM)	c1scc2c1OCCO2 [EDT, 3,4-ethylenedioxythiophene]	–
